Laboratory results: PubChem BioAssay (NCI)
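Five compound concentrations were applied to cells in 96-well plates for 48 hours; endpoints were derived by simple linear interpolation of the resulting dose-response curve. Abbreviation: GI50, concentration required for 50% inhibition of growth. The concentration for full growth arrest is given as TGI.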 Where a SMILES comes first, the peptide text is derived from it. [ ]: non-standard residue; d: D form. The star is where a group is joined. ξ: configuration not given here. 4Abz = Nc1ccc(C(=O)O)cc1; ξL = CC(C)CC(N)C(=O)O; NHOH = ON*

Assays:
Assay in all cases: NCI tumour cell line growth inhibition, 48 h
[1] = system: SK-MEL-2 melanoma
[2] = system: HOP-92 NSCLC
[3] = system: SNB-75 CNS
[4] = system: HOP-62 NSCLC
[5] = system: A549 NSCLC
[6] = system: KM12 colon
[7] = system: MDA-MB-435
[8] = system: NCI-H522 lung
[9] = system: SW-620 colon
[10] = system: A498 renal

| SMILES | TGI [1] | TGI [2] | TGI [3] | TGI [4] | TGI [5] | TGI [6] | TGI [7] | TGI [8] | TGI [9] | TGI [10] | GI50 [9] | GI50 [1] | GI50 [2] | GI50 [3] | GI50 [4] | GI50 [5] | GI50 [6] | GI50 [7] | GI50 [8] | GI50 [10] |
| --- | --- | --- | --- | --- | --- | --- | --- | --- | --- | --- | --- | --- | --- | --- | --- | --- | --- | --- | --- | --- |
| O=C(O)c1cc(/C=C/c2ccc(O)c(O)c2)ccc1O | > 100 µM | > 100 µM | > 100 µM | > 100 µM | > 100 µM | > 100 µM | > 100 µM | > 100 µM | – | – | – | – | – | – | – | – | – | – | – | – |
| COc1cc2c3c(c1OC)C1(C=CC(=O)C=C1)CC3N(C(=O)OC(C)(C)C(Cl)(Cl)Cl)CC2 (stereo not drawn) | 25.2 µM | 29.8 µM | 34.5 µM | 31.9 µM | 49.4 µM | 23.2 µM | – | 23.2 µM | 43.1 µM | 31.9 µM | – | – | – | – | – | – | – | – | – | – |
| NC(=O)c1ncn(C2CCC(CP(=O)(O)O)C2)c1N (stereo not drawn) | > 100 µM | > 100 µM | > 100 µM | > 100 µM | > 100 µM | > 100 µM | > 100 µM | – | > 100 µM | – | – | – | – | – | – | – | – | – | – | – |
| O=C1C=Cc2cc3ccccc3c3cccc1c23 | > 100 µM | 6.29 µM | 72.3 µM | 29.5 µM | 22.8 µM | 35.6 µM | 70.7 µM | > 100 µM | 72.9 µM | – | 5.22 µM | 27.6 µM | 1.11 µM | 11.8 µM | 2.12 µM | 1.43 µM | 12.1 µM | 16.3 µM | 8.6 µM | – |
| NC(=O)NC1=NCCC(=O)N1CCc1c[nH]c2ccccc12 | 29.3 µM | – | 44.5 µM | 37.6 µM | 54.8 µM | 52.4 µM | 41.1 µM | 52.1 µM | 57.7 µM | 46.1 µM | – | – | – | – | – | – | – | – | – | – |
| Cc1ccc(NC(=O)C(=O)C2C(=O)C3=C(CC2(C)C)NC2C=CC=CC2S3)c(C)c1 (stereo not drawn) | > 100 µM | > 100 µM | > 100 µM | – | > 100 µM | > 100 µM | > 100 µM | > 100 µM | > 100 µM | – | – | – | – | – | – | – | – | – | – | – |
| COc1ccc(-n2cc(-c3ccc(Cl)cc3)[nH]c2=S)cc1Cl | > 100 µM | 43.5 µM | 46.7 µM | 92.2 µM | > 100 µM | > 100 µM | > 100 µM | > 100 µM | > 100 µM | – | > 100 µM | 82.1 µM | 17.2 µM | 21.6 µM | 32.4 µM | 46.6 µM | > 100 µM | > 100 µM | 59.4 µM | – |
| COC(=O)C(=O)C(C(=O)C(=O)Nc1ccc(Cl)cc1Cl)c1nc2ccc(Cl)cc2[nH]c1=O (stereo not drawn) | > 100 µM | > 100 µM | > 100 µM | > 100 µM | > 100 µM | > 100 µM | > 100 µM | > 100 µM | > 100 µM | – | – | – | – | – | – | – | – | – | – | – |
| CC(C)CC(NC(=O)[C@@H]1CCCN1C(=O)CNC(=O)c1ccc(N)cc1)C(=O)N[C@H](C)C(=O)NO (stereo partly drawn) (H-[4Abz]GP[ξL][dA]-{NHOH}) | > 100 µM | – | > 100 µM | > 100 µM | > 100 µM | > 100 µM | > 100 µM | > 100 µM | > 100 µM | – | > 100 µM | > 100 µM | – | > 100 µM | > 100 µM | > 100 µM | > 100 µM | > 100 µM | > 100 µM | – |
| NNC(=S)N/N=C(\c1nc2ccc(Cl)cc2[nH]c1=O)C(O)c1ccc(Cl)cc1Cl (stereo not drawn) | > 100 µM | > 100 µM | > 100 µM | > 100 µM | > 100 µM | > 100 µM | – | > 100 µM | > 100 µM | > 100 µM | – | – | – | – | – | – | – | – | – | – |
| Cc1cccc2c1NC(c1c(C)[nH]c3ccccc13)C2 (stereo not drawn) | > 100 µM | 17.2 µM | > 100 µM | > 100 µM | > 100 µM | > 100 µM | – | > 100 µM | > 100 µM | > 100 µM | – | – | – | – | – | – | – | – | – | – |
| Nc1ccc(Cl)cc1.Nc1ccc(Cl)cc1.Nc1ccc(Cl)cc1.O=C([O-])C(=O)[O-].O=C([O-])C(=O)[O-].[H+].[Ru+5] | – | > 100 µM | > 100 µM | – | > 100 µM | 21.9 µM | – | > 100 µM | > 100 µM | > 100 µM | 0.187 µM | 0.219 µM | > 100 µM | > 78.6 µM | 0.691 µM | 0.351 µM | 0.124 µM | – | – | > 82.1 µM |
| O=C1c2cc(Br)ccc2-c2c1c1ccccc1c(=O)n2CCCCl | > 100 µM | 46.2 µM | – | 17.8 µM | 36.3 µM | > 100 µM | > 100 µM | > 100 µM | > 100 µM | – | 40.9 µM | 76.8 µM | 12.7 µM | – | 3.34 µM | 3.99 µM | 16.6 µM | 29.4 µM | 39.8 µM | – |
| O=C(O)C(=O)/C=C\c1ccc(Cl)cc1 | > 100 µM | > 100 µM | > 100 µM | > 100 µM | > 100 µM | > 100 µM | – | > 100 µM | 27 µM | > 100 µM | – | – | – | – | – | – | – | – | – | – |
| COc1cc(Oc2cnc3cc(N)cc(N)c3n2)cc(OC)c1OC | > 100 µM | – | 72.4 µM | > 100 µM | > 100 µM | > 100 µM | 59.1 µM | > 100 µM | > 100 µM | > 100 µM | 44.3 µM | > 100 µM | – | 19.2 µM | 48.1 µM | > 100 µM | 24.9 µM | 24.3 µM | > 100 µM | 65.1 µM |
| CC(=N\O)/C(C)=N/O.CC(=N\O)/C(C)=N/O.[Pd] | 8.67 µM | – | – | > 10 µM | > 10 µM | 8.01 µM | 5.43 µM | 5.03 µM | > 10 µM | > 10 µM | 3.44 µM | 3.31 µM | – | – | 5.62 µM | 7.03 µM | 2.79 µM | 2.64 µM | 2.08 µM | 4.9 µM |
| COc1ccc(-c2ccc(/C=N/n3cnn(CN4CCN(C)CC4)c3=S)o2)c([N+](=O)[O-])c1 | > 100 µM | 58.4 µM | > 100 µM | > 100 µM | > 100 µM | > 100 µM | 63.1 µM | > 100 µM | > 100 µM | – | 31.6 µM | > 100 µM | 17.1 µM | 68.9 µM | 34.1 µM | 39.5 µM | 33.3 µM | 30.4 µM | 45 µM | – |
| CCCCc1c2c(nc3c1CCc1cc(C=O)c(N)nc1-3)/C(=C/c1ccccc1)CCC2 | > 100 µM | > 100 µM | > 100 µM | > 100 µM | 61.5 µM | > 100 µM | – | > 100 µM | > 100 µM | 47.5 µM | – | – | – | – | – | – | – | – | – | – |
| O=C(CCCCCCCCC(=O)OCCCn1cc(C(=O)NC(=O)OCc2ccccc2)c(=O)[nH]c1=O)OCCCn1cc(C(=O)NC(=O)OCc2ccccc2)c(=O)[nH]c1=O | > 100 µM | > 100 µM | > 100 µM | > 100 µM | > 100 µM | > 100 µM | – | > 100 µM | > 100 µM | > 100 µM | – | – | – | – | – | – | – | – | – | – |
| CC1=NN(C(=O)CC(=O)Nc2ccccc2)C(=O)C1N=Nc1ccc(S(N)(=O)=O)cc1 (stereo not drawn) | > 100 µM | > 100 µM | > 100 µM | > 100 µM | > 100 µM | > 100 µM | – | > 100 µM | > 100 µM | > 100 µM | – | – | – | – | – | – | – | – | – | – |
| CC(=O)NC1=NC(=O)/C(=C/c2ccc(Cl)cc2Cl)N1C | > 100 µM | > 100 µM | > 100 µM | > 100 µM | > 100 µM | > 100 µM | > 100 µM | > 100 µM | > 100 µM | – | – | – | – | – | – | – | – | – | – | – |
| CCOC(=O)C(=C=Cc1cccs1)C(=O)c1ccccc1 | 33.4 µM | 19.1 µM | 29.8 µM | 33.9 µM | 45.5 µM | 24.7 µM | – | 28.3 µM | 31.9 µM | 35.5 µM | – | – | – | – | – | – | – | – | – | – |
| CC(C)OCC(O)COc1cc(=O)oc2ccccc12 (stereo not drawn) | > 100 µM | > 100 µM | – | > 100 µM | > 100 µM | > 100 µM | > 100 µM | > 100 µM | > 100 µM | – | – | – | – | – | – | – | – | – | – | – |
| Cn1c(=O)c2[nH]c(Nc3ccccc3)nc2n(C)c1=O | – | > 10 µM | > 10 µM | > 10 µM | > 10 µM | > 10 µM | > 10 µM | – | > 10 µM | – | – | – | – | – | – | – | – | – | – | – |
| CC(=O)OC1CC[C@@]2(C)C(CC(OC3OC(CO)C(O)C(O)C3O)[C@]3(C)C2CCC24CC23CC[C@H]4C(C)CC(O)[C@@H](O)C(C)(C)O)C1(C)C (stereo partly drawn) | 18.8 µM | 19.5 µM | 32 µM | 40.1 µM | > 50 µM | 19.7 µM | – | 16.2 µM | 45.1 µM | 45.3 µM | – | – | – | – | – | – | – | – | – | – |
| COc1cc2c(cc1OC)[C@@H]1[C@H](C2=O)c2ccc([N+](=O)[O-])cc2C(=O)N1CCCBr | > 100 µM | > 100 µM | 12.5 µM | 0.709 µM | 4.02 µM | 4.6 µM | – | 29.4 µM | > 100 µM | 2.14 µM | 0.213 µM | 4.62 µM | 3.15 µM | 0.611 µM | < 0.0277 µM | – | 0.406 µM | – | 0.574 µM | 0.666 µM |
| COC1=C(C(=O)OC(C)(C)C)C23CCCCC2(C(C(=O)OC(C)(C)C)=C(OC)C3C(=O)OC(C)(C)C)C1C(=O)OC(C)(C)C (stereo not drawn) | > 100 µM | 89.5 µM | > 100 µM | > 100 µM | > 100 µM | > 100 µM | – | > 100 µM | > 100 µM | > 100 µM | – | – | – | – | – | – | – | – | – | – |
